Assay results published in paper PMC12040169 (PLOS Biology, 2025).

experiment: in vitro; conditions: human, hela cells

Row | Compound | viability at 28.5 h, 10 µM [%]
1 | O=C(O)c1cc(NC(=O)c2ccc3c(c2)C(=O)N(Cc2ccco2)C3=O)cc(C(=O)O)c1 [CBK267374] | 101

same assay, conditions: human, hela cells, % viability

Row | Compound | viability at 28.5 h, 10 µM [%]
2 | O=C(Cc1ccc(F)cc1)N1CCC(O)(c2ccccn2)CC1 [CBK283588] | 97
3 | O=C1CC(c2ccc3c(c2)OCO3)c2ccc3ccccc3c2N1 (stereo not drawn) [CBK087469] | 95.8
4 | Cc1ccc2cc(CN(Cc3ccco3)C(=O)c3cccs3)c(O)nc2c1 [CBK269274] | 105
5 | NC(=O)c1ccccc1OCCO [CBK000640] | 87.8
6 | CC(=O)Nc1cccc(-c2cncc(NCCc3c[nH]c4ccccc34)n2)c1 [CBK037820] | 97.9
7 | Cn1cccc1CCC(=O)NC1CCN(Cc2ccccc2Cl)CC1 [CBK306814] | 88.4
8 | CCc1ccccc1C(=O)N1CCCCC1CC (stereo not drawn) [CBK081556] | 81.9
9 | CC(C)c1ccc(S(=O)(=O)N(C)Cc2cccnc2)cc1 [CBK043582] | 108
10 | CCN1CCN(C(=O)c2nccnc2C(=O)O)CC1 [CBK286718] | 88.8
11 | COC(=O)c1scc(NS(=O)(=O)c2cccc(C(F)(F)F)c2)c1C(=O)OC [CBK026680] | 94.9
12 | NC(=O)c1ccccc1NC(=O)COc1ccccc1 [CBK262599] | 85.1
13 | CCC(Oc1ccccc1C)C(=O)Nc1ccccc1C(=O)N(C)C (stereo not drawn) [CBK270144] | 88.4
14 | O=C(Cc1cccc(F)c1)N1CCC(O)(c2cccnc2F)CC1 [CBK284362] | 90.5
15 | COc1ccc(Cl)cc1S(=O)(=O)N1CCN(Cc2ccc3c(c2)OCO3)CC1 [CBK266913] | 98.5
16 | CSc1nsc(SCC(=O)c2ccc(Oc3ccccc3)cc2)n1 [CBK269104] | 96.8
17 | O=C(Cn1cc(C(=O)NC2(c3ccccc3)CCCC2)ccc1=O)NC1CCCCC1 [CBK285986] | 82.6
18 | COc1ccc([C@@]23CC[C@@H](NC(=O)Nc4ccc(F)c(F)c4)C[C@@H]2N(C(=O)CN)CC3)cc1OC [CBK051679] | 111
19 | CCC12CN3CCN(CC(C3)/C1=N\O)C2 [CBK263022] | 85.9
20 | c1ccc(CC2CCN(Cc3cccnc3)CC2)cc1 [CBK126381] | 95.9
21 | CN1CCC(N2CCN(C(=O)NCCN3CCOCC3)CC2)CC1 [CBK155891] | 93.8
22 | O=C(O)c1ccc(-c2ccc(OC(F)(F)F)cc2)nc1 [CBK160173T] | 90.6
23 | CCOCCN1CCC(C(=O)NC(c2ccc(F)cc2)c2nc(OC)cc(OC)n2)CC1 (stereo not drawn) [CBK148087] | 98
24 | Cc1c(C(=O)Nc2ccc(S(=O)(=O)N3CCCCCC3)cc2)oc2ccc(Cl)cc12 [CBK267664] | 89.2

Row | Compound | viability at 28.5 h, 10 µM [%]
25 | COc1ccc(S(=O)(=O)N2CCCC(C(=O)Nc3ccc(C(N)=O)cc3)C2)cc1C (stereo not drawn) [CBK269163] | 99.4
26 | CC1CCc2c(sc(NC(=O)CCC(=O)O)c2C(=O)N2CCOCC2)C1 (stereo not drawn) [CBK307550] | 94.1
27 | CC(Oc1cccc(Br)c1)c1nc(-c2ccc(-n3cccc3)cc2)no1 (stereo not drawn) [CBK293986] | 102
28 | CC(C)N(Cc1nc(-c2ccc(Cl)cc2)no1)C(=O)COc1ccc(Br)cc1Cl [CBK267126] | 111
29 | CCCCOc1nccnc1-c1cnc(OC)nc1OC [CBK106756] | 98.8
30 | COc1ccc([C@@]23CC[C@@H](NC(=O)CNc4ccc(Cl)c(Cl)c4)C[C@@H]2N(C)CC3)cc1OC [CBK038220] | 94.4
31 | Cc1ccc(C)c2[nH]c(=O)c(CN(CCN3CCOCC3)Cc3nnnn3C3CCCCC3)cc12 [CBK108116] | 85.3
32 | CCCNc1nccnc1-c1ccc(F)c(Cl)c1 [CBK037100] | 104
33 | COc1ccc(NC(=O)C2CCCCC2C(=O)O)c(C)c1 (stereo not drawn) [CBK270301] | 83.9
34 | N#Cc1ccccc1-c1ccc(CSc2cccc(F)c2)cc1 [CBK002920] | 107
35 | Cc1cc2c(s1)c1cnn(CC(=O)NC3CC3)c(=O)c1n2C [CBK284246] | 90.5
36 | CCOc1ccc(N)cc1S(N)(=O)=O [CBK010112] | 93.2
37 | CNC(=O)CSc1ncnc2c1cnn2-c1ccc(F)cc1 [CBK287633] | 94.4
38 | CCOc1ccc(N2C(=O)CC(N3CCN(CCc4ccncc4)CC3)C2=O)cc1 (stereo not drawn) [CBK269930] | 106
39 | CN1CCN(C(=O)c2ccc(-c3ccc(N4CCOCC4)cc3)nc2N(C)C)CC1 [CBK106114] | 90
40 | CCn1c(SCC(=O)N2c3ccccc3Sc3ccccc32)nnc1C(C)Oc1ccccc1 (stereo not drawn) [CBK266290] | 105
41 | Cc1cnc(CNS(=O)(=O)c2cnn(-c3ccccc3)c2C)cn1 [CBK062335] | 96.5
42 | COc1ccc(NC(=O)c2ccc3c(c2)C(=O)N(Cc2ccncc2)C3=O)cc1 [CBK269660] | 97.7
43 | Cc1ccc(NC(=O)CC2SC(NC3CCCCC3)=NC2=O)c(C)c1 (stereo not drawn) [CBK059500] | 87.9
44 | COc1ccccc1NC(=O)N(CC(C)C)CC(C)C [CBK005456] | 102
45 | CN(C)CCn1c(=O)[nH]c2ncc(-c3cc(C(F)(F)F)cc(C(F)(F)F)c3)nc21 [CBK065028] | 112
46 | CCOc1ccc(-c2ccnc(N3CCN(CC)CC3)n2)cc1C(=O)O [CBK307697] | 80.6
47 | O=C(Nc1nc2c(s1)CCCCC2)C1CN(S(=O)(=O)c2ccc(F)cc2)C1 [CBK286005] | 95

Row | Compound | viability at 28.5 h, 10 µM [%]
48 | COc1ccc(C2(NCc3c(C)nc4sccn34)CC2)cc1 [CBK282835] | 95.2
49 | CC1CCc2noc(C3CCCN(C(=O)c4ccco4)C3)c2C1 (stereo not drawn) [CBK282865] | 110
50 | c1ccc(N2CCN(c3cccc(-c4cc5ccccc5o4)n3)CC2)nc1 [CBK036875] | 107
51 | Cc1noc(C)c1CN1CC2CCN(c3ccccc3)C2C1 (stereo not drawn) [CBK304847] | 99.7
52 | O=C1CSC2(C(=O)N(Cc3ccccc3)c3ccccc32)N1c1ccccc1 (stereo not drawn) [CBK092391] | 100
53 | O=C(CN1CCCC1=O)N1CCN(C(=O)c2ccc(Br)o2)CC1 [CBK034530] | 90.8
54 | COc1ncc(-c2nccnc2N2CCCC2CO)c(OC)n1 (stereo not drawn) [CBK036638] | 92.8
55 | CCOc1ccccc1C(=O)Nc1cnc(-c2cccc(OC(F)(F)F)c2)c(-c2cccnc2)n1 [CBK036952] | 114
56 | COc1cccc(-c2cccc(C3CCCN(C(=O)Cc4c[nH]c5ccccc45)C3)n2)c1 (stereo not drawn) [CBK286207] | 114
57 | CCC(Oc1ccccc1)C(=O)Nc1sc2c(c1C#N)CCCC2 (stereo not drawn) [CBK262091] | 87.5
58 | NC(=O)c1ccc(-c2nccnc2NCCc2ccncc2)cc1 [CBK036644] | 97.1
59 | COC(=O)c1oc(-c2ccc(OC)cc2)c(-c2ccc(OC)cc2)c1C(N)=O [CBK001957] | 98.7
60 | O=C(c1ccccc1F)N1C[C@H](c2ccsc2)[C@H]2CN(Cc3ccsc3)CC[C@H]21 [CBK285661] | 107
61 | COc1ccc(S(=O)(=O)N(C)CC(=O)Nc2ccc(Br)cc2F)cc1Cl [CBK267916] | 81.3
62 | COc1c(Cl)cc(Cl)cc1CNC1CCCc2c1cnn2C (stereo not drawn) [CBK304305C] | 90.6
63 | O=C1N(CN2CCN(C(c3ccccc3)c3ccccc3)CC2)c2ccccc2C12OCCO2 [CBK265537] | 87.1
64 | COc1ccccc1/C=C/CN1CCNC(=O)C1CC(=O)O (stereo not drawn) [CBK269845] | 100
65 | c1cncc(-c2noc(-c3cc(C4CC4)[nH]n3)n2)c1 [CBK287973] | 94.7
66 | CN(C)CC1(O)C2CN3CCN(C2)CC1(c1ccccc1)C3 (stereo not drawn) [CBK263029] | 97.5
67 | Nc1ccc(-c2cn3ccnc3c(NCc3ccccc3)n2)cc1 [CBK066592] | 108
68 | O=C(O)c1cccc(NC(=O)c2cnc(-c3ccccc3)c(-c3ccco3)c2)c1 [CBK036710] | 93.4
69 | CCn1c(CN(C)Cc2cc(C)[nH]n2)nc2ccccc21 [CBK282120] | 110
70 | CCCCn1nnnc1NCc1cccc(OC)c1OC [CBK288091] | 104

Row | Compound | viability at 28.5 h, 10 µM [%]
71 | ON=C1CCC(c2ccccc2)CC1 (stereo not drawn) [CBK016102] | 113
72 | O=C(O)CC1COCCN1Cc1ccc(Cn2cccn2)cc1 (stereo not drawn) [CBK306827] | 89.1
73 | CCc1nc2ccc(C(=O)N3CCN(C)CC3)cn2c1N(C)Cc1nccn1C [CBK146299] | 115
74 | CC(=O)NC(c1nccs1)C1CCCN(C(=O)C2CCCCC2)C1 (stereo not drawn) [CBK282170] | 113
75 | COCC(C)NCc1ccccc1C (stereo not drawn) [CBK027852] | 115
76 | Cc1ccnc(-n2sc3ccccc3c2=O)n1 [CBK116499] | 97.1
77 | COc1cccc(C(C(F)(F)F)P(C)(=O)O)c1 (stereo not drawn) [CBK262393] | 96.8
78 | NC(=O)CN1CCC(Oc2nccnc2OCC2COc3ccccc3O2)CC1 (stereo not drawn) [CBK082987T] | 92.1
79 | Cc1cc(CN(C)Cc2ccc(N3CCCC3)c(F)c2)n[nH]1 [CBK281953] | 104
80 | Cc1cc(C)n2nc(CC(=O)NCCCn3cc(Cl)cn3)nc2n1 [CBK307276] | 84.3
81 | O=C(O)CCCC(=O)Nc1cc([N+](=O)[O-])ccc1O [CBK265592] | 102
82 | C[C@H](NC(=O)Cn1cc(-c2ccc(CN3CCCC3)cc2)nn1)c1ccc(Br)cc1 [CBK167692] | 86
83 | Cn1sc(=O)c2cc(S(=O)(=O)NC3CC3)ccc21 [CBK009163] | 86
84 | COC(=O)c1ccsc1NC(=O)CN1CCN(Cc2ccc3c(c2)OCO3)CC1 [CBK267940] | 97.6
85 | COc1ccc(C(=O)[C@H]2CCCN(C(=O)c3ccco3)C2)cc1 [CBK284327] | 99.7
86 | CN(C)c1ccc(-c2noc([C@@H]3CCCN3C3CCOCC3)n2)cn1 [CBK288903] | 93.8
87 | O=C(O)CN1C(=O)[C@@H]2Cc3ccccc3CN2C1=O [CBK202728] | 82.8
88 | COC(=O)c1cc(S(=O)(=O)NC2CCCc3ccccc32)cn1C (stereo not drawn) [CBK304616] | 98.4
89 | CC(=O)N(C)Cc1cccc(Nc2ncnc3c2cnn3CCC#N)c1 [CBK306232] | 88.5
90 | Cn1cnc(S(=O)(=O)N(c2ccc(C(C)(C)C)cc2)C2CCNCC2)c1 [CBK165046T] | 87.5
